From patent US12122767B2, “Bicyclic heterocycles as FGFR inhibitors” (Incyte Corporation, priority 2019, dated 2024)

Molecular target: T1, FGFR3 enzyme (Millipore) (Homo sapiens, UniProt P22607)
T1 construct: purchased Millipore
Assay: FGFR Enzymatic Assay (peptide phosphorylation, FRET)
Type: biochemical
Details: pre-incubated for 4 hours; ATP 140 μM, peptide 500 nM
Protocol: The inhibitor potency of the exemplified compounds was measured in an enzyme assay that measures peptide phosphorylation using FRET measurements to detect product formation. Inhibitors were serially diluted in DMSO and a volume of 0.5 μL was transferred to the wells of a 384-well plate. For FGFR3, a 10 μL volume of FGFR3 enzyme (Millipore) diluted in assay buffer (50 mM HEPES, 10 mM MgCl2, 1 mM EGTA, 0.01% Tween-20, 5 mM DTT, pH 7.5) was added to the plate and pre-incubated for a time between 5-10 minutes and up to 4 hours. Appropriate controls (enzyme blank and enzyme with no inhibitor) were included on the plate. The assay was initiated by the addition of a 10 μL solution containing biotinylated EQEDEPEGDYFEWLE peptide substrate (SEQ ID NO: 1) and ATP (final concentrations of 500 nM and 140 μM respectively) in assay buffer to the wells. The plate was incubated at 25° C. for 1 hr. The reactions were ended with the addition of 10 μL/well of quench solution (50 mM Tris, 150 mM NaCl, 0.5 mg/mL BSA, pH 7.8; 30 mM EDTA with Perkin Elmer Lance Reagents at 3.75 nM Eu-antibody PY20 and 180 nM APC-Streptavidin). The plate was allowed to equilibrate for ˜1 hr before scanning the wells on a PheraStar plate reader (BMG Labtech).
GraphPad prism3 was used to analyze the data. The IC50 values were derived by fitting the data to the equation for a sigmoidal dose-response with a variable slope. Y=Bottom+(Top-Bottom)/(1+10^((Log IC50−X)*HillSlope)) where X is the logarithm of concentration and Y is the response.
Table 1 provides IC50 data for compounds of the invention assayed in the FGFR Enzymatic Assay after dilution in assay buffer, added to the plate and pre-incubated for 4 hours.

T1 sequence (P22607 23-806): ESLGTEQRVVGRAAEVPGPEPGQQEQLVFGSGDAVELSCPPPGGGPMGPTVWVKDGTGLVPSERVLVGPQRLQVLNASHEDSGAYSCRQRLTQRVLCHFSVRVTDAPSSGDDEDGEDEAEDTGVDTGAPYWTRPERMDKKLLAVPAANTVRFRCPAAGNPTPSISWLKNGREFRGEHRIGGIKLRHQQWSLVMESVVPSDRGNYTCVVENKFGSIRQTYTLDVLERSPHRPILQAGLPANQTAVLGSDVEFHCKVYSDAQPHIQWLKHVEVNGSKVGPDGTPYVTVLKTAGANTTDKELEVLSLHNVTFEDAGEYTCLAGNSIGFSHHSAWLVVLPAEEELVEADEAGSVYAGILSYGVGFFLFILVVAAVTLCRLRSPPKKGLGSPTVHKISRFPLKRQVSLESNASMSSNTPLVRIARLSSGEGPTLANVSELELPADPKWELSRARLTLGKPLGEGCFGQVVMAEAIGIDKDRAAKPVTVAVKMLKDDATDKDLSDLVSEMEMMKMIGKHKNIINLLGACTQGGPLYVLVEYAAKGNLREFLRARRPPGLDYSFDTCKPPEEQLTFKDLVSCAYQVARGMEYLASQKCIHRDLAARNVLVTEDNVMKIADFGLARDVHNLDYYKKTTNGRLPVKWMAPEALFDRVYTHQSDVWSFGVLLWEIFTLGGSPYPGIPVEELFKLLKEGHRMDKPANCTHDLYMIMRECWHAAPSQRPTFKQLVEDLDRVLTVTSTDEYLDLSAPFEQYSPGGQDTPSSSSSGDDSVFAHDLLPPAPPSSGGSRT

Structure (SMILES)	IC50
COc1cc2[nH]nc(-c3ccc(N4CCN(C)CC4)cc3)c2cc1C(=O)Nc1c(C)cccc1C [Example 21, N-(2,6-Dimethylphenyl)-6-methoxy-3-(4-(4-methylpiperazin-1-yl)phenyl)-1H-indazole-5-carboxamide]	< 10 nM
CCc1cccc(CC)c1NC(=O)c1cc2c(-c3cnn(C)c3)n[nH]c2cc1OC [Example 7, N-(2,6-Diethylphenyl)-6-methoxy-3-(1-methyl-1H-pyrazol-4-yl)-1H-indazole-5-carboxamide]	< 10 nM
Cc1cccc(F)c1NC(=O)c1cc2c(-c3cnn(C)c3)n[nH]c2cc1Cl [Example 15, 6-Chloro-N-(2-fluoro-6-methylphenyl)-3-(1-methyl-1H-pyrazol-4-yl)-1H-indazole-5-carboxamide]	≥ 200 nM
Cc1cccc(C)c1NC(=O)c1cc2c(-c3cnn(C)c3)n[nH]c2cc1Cl [Example 13, 6-Chloro-N-(2,6-dimethylphenyl)-3-(1-methyl-1H-pyrazol-4-yl)-1H-indazole-5-carboxamide]	30 to 200 nM
COc1cc2[nH]nc(-c3cnn(C4CN(C(=O)N(C)C)C4)c3)c2cc1C(=O)Nc1c(C)cccc1C [Example 22, 3-(1-(1-(Dimethylcarbamoyl)azetidin-3-yl)-1H-pyrazol-4-yl)-N-(2,6-dimethylphenyl)-6-methoxy-1H-indazole-5-carboxamide]	< 10 nM
COc1cc2[nH]nc(-c3cnn(C)c3)c2cc1C(=O)Nc1c(C)cccc1OC [Example 9, 6-Methoxy-N-(2-methoxy-6-methylphenyl)-3-(1-methyl-1H-pyrazol-4-yl)-1H-indazole-5-carboxamide]	30 to 200 nM
COc1cc2[nH]nc(-c3cnn(C)c3)c2cc1C(=O)Nc1c(C)cccc1C [Example 1, N-(2,6-Dimethylphenyl)-6-methoxy-3-(1-methyl-1H-pyrazol-4-yl)-1H-indazole-5-carboxamide]	< 10 nM
COc1cc2[nH]nc(-c3cnn(C)c3)c2cc1C(=O)Nc1c(C)cccc1Cl [Example 3, N-(2-Chloro-6-methylphenyl)-6-methoxy-3-(1-methyl-1H-pyrazol-4-yl)-1H-indazole-5-carboxamide]	< 10 nM
COc1cc2[nH]nc(-c3cnn(C)c3)c2cc1C(=O)Nc1c(C)cc(C#N)cc1C [Example 11, N-(4-Cyno-2,6-dimethylphenyl)-6-methoxy-3-(1-methyl-1H-pyrazol-4-yl)-1H-indazole-5-carboxamide]	10 to 30 nM
COc1cc2[nH]nc(-c3cnn(C4CCC4)c3)c2cc1C(=O)Nc1c(F)cccc1Cl [Example 17, N-(2-Chloro-6-fluorophenyl)-3-(1-cyclobutyl-1H-pyrazol-4-yl)-6-methoxy-1H-indazole-5-carboxamide]	< 10 nM
COc1cc2[nH]nc(-c3ccc(N4CCN(C(C)=O)CC4)cc3)c2cc1C(=O)Nc1c(C)cccc1C [Example 20, 3-(4-(4-Acetylpiperazin-1-yl)phenyl)-N-(2,6-dimethylphenyl)-6-methoxy-1H-indazole-5-carboxamide]	< 10 nM
Cn1cc(-c2n[nH]c3cc(Cl)c(C(=O)Nc4c(F)cccc4Cl)cc23)cn1 [Example 16, 6-Chloro-N-(2-chloro-6-fluorophenyl)-3-(1-methyl-1H-pyrazol-4-yl)-1H-indazole-5-carboxamide]	≥ 200 nM
COc1cc2[nH]nc(-c3cnn(C)c3)c2cc1C(=O)Nc1c(C)cccc1C(F)(F)F [Example 4, 6-Methoxy-3-(1-methyl-1H-pyrazol-4-yl)-N-(2-methyl-6-(trifluoromethyl)phenyl)-1H-indazole-5-carboxamide]	< 10 nM
Cc1cc2[nH]nc(-c3cnn(C)c3)c2cc1C(=O)Nc1c(C)cccc1F [Example 14, N-(2-Fluoro-6-methylphenyl)-6-methyl-3-(1-methyl-1H-pyrazol-4-yl)-1H-indazole-5-carboxamide]	≥ 200 nM

Next, values leading:

IC50	Structure (SMILES)
< 10 nM	COc1cc2[nH]nc(-c3ccc(N4CCN(C)CC4)nc3)c2cc1C(=O)Nc1c(C)cccc1C [Example 26, N-(2,6-Dimethylphenyl)-6-methoxy-3-(6-(4-methylpiperazin-1-yl)pyridin-3-yl)-1H-indazole-5-carboxamide]
10 to 30 nM	COc1cc2[nH]nc(-c3cnn(CC4CCNCC4)c3)c2cc1C(=O)Nc1c(C)cccc1C [Example 39, N-(2,6-Dimethylphenyl)-6-methoxy-3-(1-(piperidin-4-ylmethyl)-1H-pyrazol-4-yl)-1H-indazole-5-carboxamide]
30 to 200 nM	COc1cc2[nH]nc(-c3cnn(C)c3)c2cc1C(=O)Nc1c(C)cc(N(C)C)cc1C [Example 29, N-(4-(Dimethylamino)-2,6-dimethylphenyl)-6-methoxy-3-(1-methyl-1H-pyrazol-4-yl)-1H-indazole-5-carboxamide]
< 10 nM	COc1cc2[nH]nc(-c3cnn(C4CCN(C)CC4)c3)c2cc1C(=O)Nc1c(C)cccc1C [Example 34, N-(2,6-Dimethylphenyl)-6-methoxy-3-(1-(1-methylpiperidin-4-yl)-1H-pyrazol-4-yl)-1H-indazole-5-carboxamide]
< 10 nM	COc1cc2[nH]nc(-c3cnn(C4CCOCC4)c3)c2cc1C(=O)Nc1c(C)cccc1C [Example 35, N-(2,6-Dimethylphenyl)-6-methoxy-3-(1-(tetrahydro-2H-pyran-4-yl)-1H-pyrazol-4-yl)-1H-indazole-5-carboxamide]
< 10 nM	CCNC(=O)N1CC(n2cc(-c3n[nH]c4cc(OC)c(C(=O)Nc5c(C)cccc5C)cc34)cn2)C1 [Example 30, N-(2,6-Dimethylphenyl)-3-(1-(1-(ethylcarbamoyl)azetidin-3-yl)-1H-pyrazol-4-yl)-6-methoxy-1H-indazole-5-carboxamide]
< 10 nM	COc1cc2[nH]nc(-c3cnn(C4CCN(C(C)=O)CC4)c3)c2cc1C(=O)Nc1c(C)cccc1C [Example 25, 3-(1-(1-Acetylpiperidin-4-yl)-1H-pyrazol-4-yl)-N-(2,6-dimethylphenyl)-6-methoxy-1H-indazole-5-carboxamide]
< 10 nM	CCOC(=O)N1CC(n2cc(-c3n[nH]c4cc(OC)c(C(=O)Nc5c(C)cccc5C)cc34)cn2)C1 [Example 23, Ethyl 3-(4-(5-((2,6-Dimethylphenyl)carbamoyl)-6-methoxy-1H-indazol-3-yl)-1H-pyrazol-1-yl)azetidine-1-carboxylate]
10 to 30 nM	COc1cc2[nH]nc(-c3cnn(Cc4cccnc4)c3)c2cc1C(=O)Nc1c(C)cccc1C [Example 41, N-(2,6-Dimethylphenyl)-6-methoxy-3-(1-(pyridin-3-ylmethyl)-1H-pyrazol-4-yl)-1H-indazole-5-carboxamide]
< 10 nM	COc1cc2[nH]nc(-c3cnn(C4CN(S(C)(=O)=O)C4)c3)c2cc1C(=O)Nc1c(C)cccc1C [Example 32, N-(2,6-Dimethylphenyl)-6-methoxy-3-(1-(1-(methylsulfonyl)azetidin-3-yl)-1H-pyrazol-4-yl)-1H-indazole-5-carboxamide]
10 to 30 nM	COc1cc2[nH]nc(-c3cnn(CCN4CCOCC4)c3)c2cc1C(=O)Nc1c(C)cccc1C [Example 40, N-(2,6-Dimethylphenyl)-6-methoxy-3-(1-(2-morpholinoethyl)-1H-pyrazol-4-yl)-1H-indazole-5-carboxamide]
10 to 30 nM	COc1cc2[nH]nc(-c3cnn(CCO)c3)c2cc1C(=O)Nc1c(C)cccc1C [Example 38, N-(2,6-Dimethylphenyl)-3-(1-(2-hydroxyethyl)-1H-pyrazol-4-yl)-6-methoxy-1H-indazole-5-carboxamide]
< 10 nM	COc1cc2[nH]nc(-c3cnn(C4CCOC4)c3)c2cc1C(=O)Nc1c(C)cccc1C (stereo not shown) [Example 36, N-(2,6-Dimethylphenyl)-6-methoxy-3-(1-(tetrahydrofuran-3-yl)-1H-pyrazol-4-yl)-1H-indazole-5-carboxamide]
< 10 nM	COC(=O)N1CCC(n2cc(-c3n[nH]c4cc(OC)c(C(=O)Nc5c(C)cccc5C)cc34)cn2)CC1 [Example 24, Methyl 4-(4-(5-((2,6-dimethylphenyl)carbamoyl)-6-methoxy-1H-indazol-3-yl)-1H-pyrazol-1-yl)piperidine-1-carboxylate]
10 to 30 nM	COc1cc2[nH]nc(-c3cnn(C)c3)c2cc1C(=O)Nc1c(C)cc(NS(C)(=O)=O)cc1C [Example 27, N-(2,6-Dimethyl-4-(methylsulfonamido)phenyl)-6-methoxy-3-(1-methyl-1H-pyrazol-4-yl)-1H-indazole-5-carboxamide]
< 10 nM	COc1cc2[nH]nc(-c3cnn(C4CCC4)c3)c2cc1C(=O)Nc1c(C)cccc1C [Example 43, 3-(1-Cyclobutyl-1H-pyrazol-4-yl)-N-(2,6-dimethylphenyl)-6-methoxy-1H-indazole-5-carboxamide]
30 to 200 nM	COc1cc2[nH]nc(-c3cnn(C)c3)c2cc1C(=O)Nc1c(C)cc(NC(C)=O)cc1C [Example 28, N-(4-Acetamido-2,6-dimethylphenyl)-6-methoxy-3-(1-methyl-1H-pyrazol-4-yl)-1H-indazole-5-carboxamide]
